# Data published in patent publication US6008046A, “Drug and pesticide screening” (priority 1993, dated 1999).
# Structures can show the parent of a compound that is named as a salt. Where two headings read alike, the source gives them in different places.
# How the values were obtained:
# [1] = biological target: T1, mutant GABA receptor (Ala to Ser mutant Rdl) (Drosophila melanogaster, UniProt P25123, A301S/I283V); assay: Two-electrode voltage clamp of Xenopus oocytes expressing Ala to Ser mutant GABA receptor; format: cell-based; conditions: for sensitivity of Ala>Ser mutant compared with wild-type: thirty oocytes with each type of RNA (FIGS. 10b-e); for Reduction in GABA response (mean (s.d.)): xenopus oocytes; for response of mutant channels to GABA and muscimol compared with wild-type channels: Ala to Ser mutant vs wild-type
# T1 construct: expressed in transfected cells; host or cells: Xenopus oocytes injected with RNA derived from the Ala to Ser mutant of cDNA 14.1
# T1 sequence (P25123 other isoform, or with tags, fused parts or gaps I283V/A301S): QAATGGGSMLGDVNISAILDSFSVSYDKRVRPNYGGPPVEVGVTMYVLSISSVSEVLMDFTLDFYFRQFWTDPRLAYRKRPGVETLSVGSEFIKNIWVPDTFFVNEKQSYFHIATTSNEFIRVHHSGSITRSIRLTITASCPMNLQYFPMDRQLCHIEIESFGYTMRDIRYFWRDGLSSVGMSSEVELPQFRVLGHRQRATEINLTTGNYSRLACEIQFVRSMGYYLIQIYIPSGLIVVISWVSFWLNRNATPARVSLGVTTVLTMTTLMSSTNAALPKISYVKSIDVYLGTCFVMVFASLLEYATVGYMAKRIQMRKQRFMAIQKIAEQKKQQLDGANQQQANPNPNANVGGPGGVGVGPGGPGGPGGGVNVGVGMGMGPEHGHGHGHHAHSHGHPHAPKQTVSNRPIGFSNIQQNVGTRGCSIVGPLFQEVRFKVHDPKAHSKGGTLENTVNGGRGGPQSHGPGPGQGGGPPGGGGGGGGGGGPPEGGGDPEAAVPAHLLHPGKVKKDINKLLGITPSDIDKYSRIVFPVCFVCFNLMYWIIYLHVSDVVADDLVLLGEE
# Protocol: (§1) The cloning of cDNA's from the GABAA locus allows for functional expression of mRNA derived from this and other subunit cDNA templates in various cell types.
# (§2) In the Xenopus oocyte expression system, oocytes removed from ovaries of adult Xenopus are arrested at the first meiotic prophase. Because each oocyte is fairly large and has a large nucleus, it is technically easy to inject foreign DNA into the oocyte nucleus. Typically, 20-40 nl is injected through a finely drawn glass capillary. The endogenous Xenopus RNA polymerases transcribe this injected exogenous DNA. Mertz and Gurdon, Proc. Natl. Acad. Sci. USA 74:1502 (1977). The exogenous DNA is assembled into chromatin, but there is no replication of injected duplex DNA in the oocyte. Gargilo and Worcel, J. Mol. Biol., 170:699 (1983); Ryoji and Worcel, Cell 37:21 (1984). Single-stranded DNA (e.g., DNA obtained by cloning in M13 vectors), is converted to duplex form within the oocyte nucleus. The Xenopus oocyte also efficiently translates mRNA injected into its cytoplasm.
# (§3) Various studies have shown that this Xenopus expression system is feasible for expression of foreign DNA. Kreig and Melton, EMBO J 4:3464 (1985); Masu et al., Nature 329:836 (1987); Wilson et al., Cell 47:589 (1986); see also, Old and Primrose, Principles of Gene Manipulation, 4th ed. (Blackwell Scientific Publications, Oxford, 1989)(pp. 296-302).
# (§4) In the system of the present invention, messenger RNA produced from cDNA template, (both messenger RNA and cDNA template are considered to be part of the present invention), is injected into Xenopus eggs which then express the protein. By patch clamp electrophysiology experiments, one can then determine whether the cell is expressing the protein (measured by electrical impulses) and whether this expression can be altered by the compound of interest.
# (§5) Currents were recorded in 96 mM NaCl, 2 mM Kcl, 1.8 mM MgCl2, and 5 mM Hepes. Recordings were made 1-5 days after injection. […] Dieldrin was dissolved in DMSO (dimethylsulfoxide), then diluted to a final concentration of 0.1% DMSO. The single base pair substitution of GCG (alanine) to TCG (serine) was introduced into the sensitive cDNA 14.1 by subcloning in a restriction fragment from the insensitive cDNA. The region containing the mutation was then amplified by PCR from total embryonic RNA from Rdl^R-MD flies and subsequently digested with EcoRV and Acc1. This restriction fragment was then cloned into the sensitive cDNA 14.1 cut with the same enzymes to yield the Ala to Ser mutant construct.
# (§6) In order to test the effect of the resistance-associated Ala to Ser mutation, this substitution was introduced into the sensitive cDNA (as discussed above). […] Pharmacological comparisons were made using thirty oocytes injected with each type of RNA.
# [2] = tested on: mutant GABA receptor (Ala to Ser mutant Rdl); assay: as above; format: cell-based, Drosophila melanogaster
# Protocol: as §1, §2, §3, §4, §5, §6
# [3] = biological target: normal GABA receptor (wild-type Rdl, cDNA 14.1) (Drosophila melanogaster, UniProt P25123, I283V); assay: cell-based; conditions: for Reduction in GABA response (mean (s.d.)): xenopus oocytes
# Sequence of normal GABA receptor (wild-type Rdl, cDNA 14.1) (P25123 other isoform, or with tags, fused parts or gaps I283V): as the sequence (P25123 other isoform, or with tags, fused parts or gaps I283V/A301S) above, with S257A counted along it
# Protocol: as §1, §2, §3, §4, §5, §6
# [4] = tested on: D. melanogaster; conditions: 30 μg dieldrin, ffrench-Constant et al. 1990, cited from earlier work
# [5] = tested on: larval central nerve cord of Rdl^R-MD; conditions: dieldrin, 10 μM concentration; Bloomquist et al. 1991; cited from earlier work
# [6] = tested on: D. melanogaster; assay: Dieldrin contact bioassay, fly mortality in coated vials after 24 hours; format: in vivo; conditions: for mortality at 0.03 mg: Drosophila melanogaster, 24 h, 30 μg dieldrin
# Protocol: More specifically, FIG. 2 depicts the crosses used to rescue cyclodiene insecticide susceptibility via P-element-mediated germline transformation. As depicted, embryos containing an endogenous source of transposase (Δ2,3) were injected with a cosmid carrying a susceptible copy of the gene and a copy of the mini-white eye color gene as a selectable marker. Successful G0 transformants with red eyes (w^+) were subsequently crossed into flies hemizygous for resistance and a deficiency uncovering the resistance gene Df(3L)29A6. These flies carrying the w^+ S insert (transferred DNA) are susceptible to a dose of 30 μg dieldrin, whereas their siblings without the insert are resistant to this dose.
# In order to more precisely localize the gene within the 200 kb of DNA isolated from the 66F subregion, new chromosomal rearrangements were induced using γ irradiation and screened for those uncovering the resistance gene. Chromosomal rearrangements were generated by exposing male SS flies with multiply marked third chromosomes (rucuca strain) to 4,000 rads of radiation in a γ radiation (cesium) source, and then outcrossing these R/R (Rdl^R /Rdl^R) females. New rearrangements uncovering resistance were screened for by exposing their progeny at a dose of 30 μg dieldrin, at which only R/Df (Rdl^R /Df) flies will survive (all the expected RS progeny will die at this dose level except for any R/- flies wherein "-" is any new rearrangement uncovering the resistance gene), survivors were crossed to In(3LR)TM3/Sb and maintained as a balanced stock (Df/In(3LR)TM3).
# Approximately 50,000 flies were screened. For screening, 20 ml glass scintillation vials were coated internally with 30 μg of dieldrin in acetone and rolled until dry. Twenty to thirty flies per vial were added and mortality was recorded after 24 hours at 25° C..
# As both of the cytologically visible rearrangements giving two new recombinant bands on a Southern with probes from cosmid 6 have only one breakpoint within 66F, this cluster of breakpoints which disrupts the gene must therefore mark its location. In order to determine whether cosmid 6 contained a functional copy of the gene for cyclodiene resistance, P-element germline transformation with this cosmid was carried out. Following successful isolation of a w^+ transformant, linkage to the insert to the second chromosome was established after crossing male G0 progeny to a stock bearing markers on the second and third chromosomes (FIG. 2). […]
# Entomol., 83:1733, (1990). […] These field-collected and isofemale strains were used in the initial identification of the resistance-associated mutation, but studies of linkage to other restriction-site markers in D. melanogaster were done with isochromsomal lines to ensure that only a single chromosome was being analyzed.
# [7] = tested on: PTX binding sites on the GABA receptor; conditions: cyclodiene-resistant vs susceptible strains; Matsumura et al. 1987; cited from earlier work
# [8] = tested on: cultured Rdl^R-MD neurons; assay: Whole cell patch clamp of cultured Rdl^R-MD neurons; format: cell-based, Drosophila melanogaster; conditions: PTX
# [9] = tested on: chloride ion channels; conditions: thiocyanate ions vs chloride; cited from earlier work
# [10] = read-out: Reduction in GABA response (mean (s.d.))
# [11] = wild-type mRNA, voltage clamped at -60 mV
compound,measurement,setting,value
ClC1=C(Cl)[C@]2(Cl)[C@@H]3[C@@H]4C[C@@H]([C@H]5O[C@@H]45)[C@@H]3[C@@]1(Cl)C2(Cl)Cl [dieldrin],"block of the GABA response, in words","[1]; […] μM dieldrin, insensitive mutant cDNA (FIG. 10e)",little effect
same,sensitivity of expressed chloride ion channels carrying the Ala to Ser mutation,[1]; mutation of resistant D. melanogaster,insensitivity
same,inhibition at 10 µM,[1]; [10],23%
same,sensitivity of Ala>Ser mutant compared with wild-type,[1],consistently lower sensitivity
same,Reduction in GABA response (mean (s.d.)),[1]; 10 µM,12 (11) %
same,loss of sensitivity conferred by the mutation,"[2]; dieldrin, from comparison of effects of lower doses",50-100 fold
same,solubility,"[3]; dissolved in DMSO, diluted to final 0.1% DMSO, concentration above 10 μM not possible",limited solubility
same,inhibition at 10 µM,[3]; [10],78%
same,inhibition at 10 µM,"[3]; read-out: block of the GABA response, 10 μM dieldrin, wild-type ""sensitive"" cDNA (FIG. 10c)",> 75%
same,Reduction in GABA response (mean (s.d.)),[3]; 10 µM,80 (6) %
same,survival of RR flies,[4]; RR flies,85%
same,kill of RS and SS genotypes,[4]; RS and SS flies,kills all RS and SS genotypes
same,sensitivity of larval central nerve cord of Rdl^R-MD,[5],Insensitivity
same,mortality at 0.03 mg,"[6]; flies carrying the cosmid 6 insert (Rdl^R/Rdl^S), n=221",93%
same,mortality at 0.03 mg,"[6]; siblings without the insert (Rdl^R/Df(3L)29A6), n=214",7%
same,"susceptibility to 30 μg dieldrin, in words",[6]; flies carrying the w+ S insert,susceptible
same,"susceptibility to 30 μg dieldrin, in words",[6]; siblings without the insert,resistant
"NCCCC(=O)O [GABA, γ-aminobutyric acid]",response of mutant channels to GABA and muscimol compared with wild-type channels,[1],apparently identical to the wild-type channels
same,recovery of response to GABA during washing,"[3]; after PTX or dieldrin, washed with saline 20 min, all experiments (wild-type and mutant)",at least 50%
same,reversal potential of GABA-evoked currents,[3]; wild-type mRNA,-20 to -25 mv
same,"maximum current, lower end of range",[3]; [11],50 nA
same,"maximum current, upper end of range",[3]; [11],> 5 μA
"C=C(C)[C@@H]1[C@H]2OC(=O)[C@@H]1[C@]1(O)C[C@H]3O[C@]34C(=O)O[C@H]2[C@]14C [PTX, Picrotoxinin]","block of the GABA response, in words","[1]; 1 μM PTX, Ala to Ser mutant (FIG. 10d)",little effect
same,inhibition at 1 µM,[1]; [10],8%
same,inhibition at 10 µM,[1]; [10],61%
same,inhibition at 50 µM,[1]; [10],75%
same,inhibition at 1 µM,"[1]; read-out: Reduction in GABA response (mean (s.d.)), Mutant, 1 μM PTX, oocytes with GABA EC50 […] μM, n = 6",8%
same,sensitivity of Ala>Ser mutant compared with wild-type,[1],consistently lower sensitivity
same,Reduction in GABA response (mean (s.d.)),[1]; 10 µM,48 (6) %
same,Reduction in GABA response (mean (s.d.)),[1]; 50 µM,56 (6) %
same,reduction in sensitivity induced by the mutation,"[2]; PTX, mutant vs wild-type oocytes",approximately 100 fold
same,affinity for PTX of resistant strains relative to susceptibles,[7],one tenth
same,inhibition at 1 µM,[3]; [10],73%
same,inhibition at 10 µM,[3]; [10],96%
same,inhibition at 50 µM,[3]; [10],96%
same,inhibition at 1 µM,"[3]; read-out: block of the GABA response, 1 μM PTX, wild-type ""sensitive"" cDNA (FIG. 10b)",> 70%
same,Reduction in GABA response (mean (s.d.)),[3]; 1 µM,78 (12) %
same,Reduction in GABA response (mean (s.d.)),[3]; 10 µM,90 (13) %
same,Reduction in GABA response (mean (s.d.)),[3]; 50 µM,97 (5) %
same,reduction in sensitivity,[8],approximately 100 fold
"C[N+]1(C)CCc2cc3c(cc2[C@H]1[C@@H]1OC(=O)c2c1ccc1c2OCO1)OCO3 [bicuculline, (-)-bicuculline methiodide]",block of GABA-evoked currents by bicuculline,[3]; bicuculline 100 μM with 10 μM GABA (FIG. 10a),not blocked
"NCc1cc(=O)[nH]o1 [muscimol, muscimol hydrobromide]",response of mutant channels to GABA and muscimol compared with wild-type channels,[1],apparently identical to the wild-type channels
N#CS [thiocyanate],permeation through chloride ion channels relative to chloride,[9],seven
